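In this assay, cells in 96-well plates receive the compound at five concentrations for 48 hours. Endpoints are linearly interpolated between the surrounding concentrations. Abbreviation: GI50, concentration required for 50% inhibition of growth.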 The source made the active and inactive calls. Cut-off read from the data, not from the text of the source: active = GI50 up to about 1.1 µM and inactive = higher.
Assays:
Test in all cases: inhibition of tumour cell growth, NCI panel, 48 h
UACC-62 = system: UACC-62
K562 = system: K562
NCI-H23 = system: NCI-H23
SK-MEL-28 = system: SK-MEL-28
NCI-H522 = system: NCI-H522
KM12 = system: KM12
SNB-19 = system: SNB-19
ACHN = system: ACHN
OVCAR-8 = system: OVCAR-8
OVCAR-3 = system: OVCAR-3
NCI-H460 = system: NCI-H460
RXF 393 = system: RXF 393
HCT-15 = system: HCT-15
M14 = system: M14
SK-OV-3 = system: SK-OV-3
SN12C = system: SN12C
A498 = system: A498
HOP-62 = system: HOP-62
CCRF-CEM = system: CCRF-CEM
EKVX = system: EKVX

Row | Structure (SMILES) | GI50 (UACC-62) | GI50 (K562) | GI50 (NCI-H23) | GI50 (SK-MEL-28) | GI50 (NCI-H522) | GI50 (KM12) | GI50 (SNB-19) | GI50 (ACHN) | GI50 (OVCAR-8) | GI50 (OVCAR-3) | GI50 (NCI-H460) | GI50 (RXF 393) | GI50 (HCT-15) [µM] | GI50 (M14) | GI50 (SK-OV-3) | GI50 (SN12C) | GI50 (A498) | GI50 (HOP-62) | GI50 (CCRF-CEM) | GI50 (EKVX)
1 | CCOC(=O)/C=C1/Oc2ccccc2C1(C)O (centres undefined) | > 100 µM (inactive) | > 100 µM (inactive) | > 100 µM (inactive) | > 100 µM (inactive) | > 100 µM (inactive) | > 100 µM (inactive) | > 100 µM (inactive) | > 100 µM (inactive) | > 100 µM (inactive) | > 100 µM (inactive) | > 100 µM (inactive) | 68.7 µM (inactive) | > 100 | > 100 µM (inactive) | > 100 µM (inactive) | > 100 µM (inactive) | > 100 µM (inactive) | > 100 µM (inactive) | > 100 µM (inactive) | > 100 µM (inactive)
2 | CC(C)=C1C2CC3(C)CCC2(C)CCC13.CC1=CCC2C3(C)CCC2(C(C)C)C1C3 (centres undefined) | 64.1 µM (inactive) | 31.4 µM (inactive) | 38.3 µM (inactive) | 34.2 µM (inactive) | 20.8 µM (inactive) | 19.5 µM (inactive) | 18.4 µM (inactive) | 20.3 µM (inactive) | 17.3 µM (inactive) | 16.5 µM (inactive) | 17.2 µM (inactive) | 17.8 µM (inactive) | 16.9 | 20.1 µM (inactive) | > 100 µM (inactive) | 18.2 µM (inactive) | 34 µM (inactive) | 22.3 µM (inactive) | 24.5 µM (inactive) | 21.6 µM (inactive)
3 | COC(=O)C1(Cc2ccccc2)Cc2cc3c(cc2C1)CCC3 | 29.8 µM (inactive) | 17 µM (inactive) | 38.5 µM (inactive) | 41.1 µM (inactive) | 22.2 µM (inactive) | 22.3 µM (inactive) | 37.6 µM (inactive) | 30 µM (inactive) | 25.3 µM (inactive) | 33.7 µM (inactive) | 33.3 µM (inactive) | 20.1 µM (inactive) | 28.4 | 30.6 µM (inactive) | 32.3 µM (inactive) | 42.3 µM (inactive) | 35.5 µM (inactive) | 50.2 µM (inactive) | 14.9 µM (inactive) | 21.5 µM (inactive)
4 | C/C(=N\O)C1CC(CC(=O)O)C1(C)C (centres undefined) | > 100 µM (inactive) | > 100 µM (inactive) | > 100 µM (inactive) | > 100 µM (inactive) | > 100 µM (inactive) | > 100 µM (inactive) | > 100 µM (inactive) | > 100 µM (inactive) | > 100 µM (inactive) | 10.2 µM (inactive) | > 100 µM (inactive) | > 100 µM (inactive) | > 100 | > 100 µM (inactive) | > 100 µM (inactive) | > 100 µM (inactive) | > 100 µM (inactive) | > 100 µM (inactive) | > 100 µM (inactive) | > 100 µM (inactive)
5 | COc1ccc(/C=C2\CC3C4CC=C5C[C@@H](O)CC[C@]5(C)C4CC[C@]3(C)\C2=N\O)cc1OC (some centres undefined) | 10.3 µM (inactive) | 4.98 µM (inactive) | 9.71 µM (inactive) | 23 µM (inactive) | 13.9 µM (inactive) | 7.5 µM (inactive) | 70.6 µM (inactive) | 3.98 µM (inactive) | 8.97 µM (inactive) | 2.69 µM (inactive) | 6.61 µM (inactive) | 7.73 µM (inactive) | 4.32 | 19.6 µM (inactive) | 49.3 µM (inactive) | 15.7 µM (inactive) | 5.4 µM (inactive) | 18.2 µM (inactive) | 18.2 µM (inactive) | 6 µM (inactive)
6 | COC(=O)[C@@H](NC(=O)[C@H](N)Cc1ccc(N(CCCl)CCCl)cc1)C(C)C | 2.39 µM (inactive) | 12.9 µM (inactive) | 3.66 µM (inactive) | 11.9 µM (inactive) | 5.92 µM (inactive) | 25.1 µM (inactive) | > 54.1 µM (inactive) | 3.56 µM (inactive) | 7.06 µM (inactive) | 6.38 µM (inactive) | 10.1 µM (inactive) | 12 µM (inactive) | 18.4 | 8.17 µM (inactive) | 32.7 µM (inactive) | 13.9 µM (inactive) | 18.7 µM (inactive) | 19.9 µM (inactive) | 0.435 µM (active) | 34 µM (inactive)
7 | Nc1n[nH]c(CCCCCCCc2nnc(N)[nH]2)n1 | > 100 µM (inactive) | > 100 µM (inactive) | > 100 µM (inactive) | > 100 µM (inactive) | > 100 µM (inactive) | > 100 µM (inactive) | > 100 µM (inactive) | > 100 µM (inactive) |  | > 100 µM (inactive) | > 100 µM (inactive) | > 100 µM (inactive) | > 100 | > 100 µM (inactive) | > 100 µM (inactive) | > 100 µM (inactive) | > 100 µM (inactive) | > 100 µM (inactive) | > 100 µM (inactive) | > 100 µM (inactive)
